Usually inhibition stands for the drop in the measured response relative to a control, in per cent. Read a high inhibition as a response far below the control.

Among the data in ChEMBL document CHEMBL3046068, “Design, synthesis, and biological activity of certain quinazolinedione derivatives as potent phosphodiestrase4 inhibitors” (Med Chem Res, 2012) are inhibition values, retold here.

The assay has as its target 3',5'-cyclic-AMP phosphodiesterase 4B (Homo sapiens) (UniProt Q07343). Put plainly: Inhibition of PDE4B (unknown origin) using FAM-cAMP as substrate at 10 uM after 60 min by fluorescence polarization assay. On the technique in general: Fluorescence polarisation rises when a labelled molecule tumbles more slowly, as on binding a larger partner.

3',5'-cyclic-AMP phosphodiesterase 4B (Homo sapiens), sequence (Q07343 whole entry): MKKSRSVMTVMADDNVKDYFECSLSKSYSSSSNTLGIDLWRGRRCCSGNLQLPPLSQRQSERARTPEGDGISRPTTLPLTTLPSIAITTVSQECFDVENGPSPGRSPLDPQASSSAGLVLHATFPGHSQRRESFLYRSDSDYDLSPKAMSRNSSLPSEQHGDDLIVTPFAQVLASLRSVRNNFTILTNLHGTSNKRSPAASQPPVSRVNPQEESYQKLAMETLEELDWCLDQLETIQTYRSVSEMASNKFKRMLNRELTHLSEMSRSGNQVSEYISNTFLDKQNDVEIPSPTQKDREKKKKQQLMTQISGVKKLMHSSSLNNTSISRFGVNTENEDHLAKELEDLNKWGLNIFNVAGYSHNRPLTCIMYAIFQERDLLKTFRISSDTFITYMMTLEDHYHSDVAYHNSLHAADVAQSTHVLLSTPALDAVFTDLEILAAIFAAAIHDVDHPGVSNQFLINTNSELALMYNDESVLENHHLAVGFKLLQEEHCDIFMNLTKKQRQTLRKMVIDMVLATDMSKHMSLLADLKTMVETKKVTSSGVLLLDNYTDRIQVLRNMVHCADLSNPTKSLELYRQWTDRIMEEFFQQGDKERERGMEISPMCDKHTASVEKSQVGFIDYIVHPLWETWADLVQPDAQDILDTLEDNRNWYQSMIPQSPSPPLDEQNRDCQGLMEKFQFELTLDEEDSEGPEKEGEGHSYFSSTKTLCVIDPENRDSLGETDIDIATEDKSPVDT

In turn, `CCCCn1c(=O)c2ccccc2n(CC(=O)c2ccccc2)c1=O` returned an inhibition of 22%. The same measure for `CCCCn1c(=O)c2ccccc2n(CCCN2CCOCC2)c1=O`: 100%. In the case of `CCCCn1c(=O)c2ccccc2n(CCN2CCCCC2)c1=O`, the inhibition was determined as 11%. Turning to `CCCCn1c(=O)c2ccccc2n(Cc2ccccc2)c1=O`, the inhibition was determined as 56%. Compound `CCCCn1c(=O)c2ccccc2n(CC(=O)c2ccc(Cl)cc2)c1=O` displayed an inhibition of 8%.

`CCCCn1c(=O)c2ccccc2n(CCCN2CCCCC2)c1=O` registered an inhibition of 11%. For the compound `CCCCn1c(=O)c2ccccc2n(CCCN2CCN(c3ccccc3)CC2)c1=O`, the inhibition was determined as 13%. As to `CCCCn1c(=O)c2ccccc2n(CCCN(CC)CC)c1=O`, the inhibition was determined as 9%.

`CCCCn1c(=O)c2ccccc2n(CCN(CC)CC)c1=O` yielded an inhibition of 8%.

For `CCCCn1c(=O)c2ccccc2n(CCN2CCN(c3ccccc3)CC2)c1=O`, the inhibition came out at 25%. As to `CCCCn1c(=O)c2ccccc2n(CCN2CCOCC2)c1=O`, the inhibition is 17%.
